Measurements published in patent publication US8871756B2 (Hoffmann-La Roche Inc., priority 2011, dated 2014).

Test system: RSV Long strain
Assay: Viral cytopathic effect (CPE) assay, anti-RSV activity
Type: cell-based, Respiratory Syncytial Virus
Conditions: human respiratory syncytial virus, 144 h, RSV Long strain (ATCC); cell viability after 6 days, Cell Counting kit-8
Method in brief: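 Cells (6×10^3/well, DMEM with 10% FBS) were infected next day with RSV Long strain, at a dose giving approximately 80–90% CPE, alongside serial half-log compound dilutions. Viability was read after 6 days by CCK-8 absorbance at 450 nm (reference 630 nm), and EC50 was derived from it.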

| Compound | EC50 |
| --- | --- |
| Cc1ccc2nc(N3CCS(=O)(=O)c4ccccc4C3)cc(NCC3(N)CCC3)c2c1 [Example 3-54, N-[(1-Aminocyclobutyl)methyl]-2-(1,1-dioxido-2,3-dihydro-1,4-benzothiazepin-4(5H)-yl)-6-methylquinolin-4-amine] | 0.114 µM |
| Cc1ccc2nc(N3CCS(=O)(=O)c4ccccc4C3)cc(NCCC(N)=O)c2c1 [Example 36-1, N^˜3^˜-[2-(1,1-Dioxido-2,3-dihydro-1,4-benzothiazepin-4(5H)-yl)-6-methylquinolin-4-yl]-beta-alaninamide] | 0.073 µM |
| NCCNc1cc(N2CCS(=O)(=O)c3ccccc3C2)nc2ccc(Cl)cc12 [Example 3-46, N-[6-Chloro-2-(1,1-dioxido-2,3-dihydro-1,4-benzothiazepin-4(5H)-yl)quinolin-4-yl]ethane-1,2-diamine] | 0.053 µM |
| NC1=NCC(CNc2cc(N3CCCc4ccccc4C3)nc3ccc(Cl)cc23)O1 (stereo not shown) [Example 126-2, N-[(2-Amino-4,5-dihydro-1,3-oxazol-5-yl)methyl]-6-chloro-2-(1,3,4,5-tetrahydro-2H-2-benzazepin-2-yl)quinolin-4-amine] | 0.638 µM |
| NCCCNc1cc(N2CCS(=O)(=O)c3ccccc3C2)nc2ccc(Br)cc12 [Example 9-34, N-[6-Bromo-2-(1,1-dioxido-2,3-dihydro-1,4-benzothiazepin-4(5H)-yl)quinolin-4-yl]propane-1,3-diamine] | 0.024 µM |
| Cc1ccc2nc(N3CCS(=O)(=O)c4ccccc4C3C)cc(NCC(O)CO)c2c1 (stereo not shown) [Example 32-5, 3-{[6-Methyl-2-(5-methyl-1,1-dioxido-2,3-dihydro-1,4-benzothiazepin-4(5H)-yl)quinolin-4-yl]amino}propane-1,2-diol] | 2.58 µM |
| Cc1ccc2nc(N3CC[S+]([O-])c4ccccc4C3)cc(N3C[C@@H](N)[C@H](O)C3)c2c1 (relative stereo) [Example 19-1, trans-4-Amino-1-[6-methyl-2-(1-oxido-2,3-dihydro-1,4-benzothiazepin-4(5H)-yl)quinolin-4-yl]pyrrolidin-3-ol] | 0.043 µM |
| Cc1ccc2nc(N3CC[S+]([O-])c4ccccc4C3)nc(NCC3(N)COC3)c2c1 (stereo not shown) [Example 55-1, N-[(3-Aminooxetan-3-yl)methyl]-6-methyl-2-(1-oxido-2,3-dihydro-1,4-benzothiazepin-4(5H)-yl)quinazolin-4-amine] | 0.007 µM |
| COc1ccc2c(c1)CN(c1cc(NCC3(CNC(C)=O)COC3)c3cc(C)ccc3n1)CCS2(=O)=O [Example 3-6, N-{[3-({[2-(7-Methoxy-1,1-dioxido-2,3-dihydro-1,4-benzothiazepin-4(5H)-yl)-6-methylquinolin-4-yl]amino}methyl)oxetan-3-yl]methyl}acetamide] | 0.058 µM |
| O=S1(=O)CCN(c2cc(NCCO)c3cnccc3n2)Cc2ccccc21 [Example 12-2, 2-{[2-(1,1-Dioxido-2,3-dihydro-1,4-benzothiazepin-4(5H)-yl)-1,6-naphthyridin-4-yl]amino}ethanol] | 0.315 µM |
| Cc1ccc2nc(N3CCSc4ccccc4C3)nc(N)c2c1 [Example 58, 2-(2,3-Dihydro-1,4-benzothiazepin-4(5H)-yl)-6-methylquinazolin-4-amine] | 2.77 µM |
| Cc1ccc2nc(N3CCS(=O)(=O)c4ccccc4C3)cc(Nc3ccc(N)cc3)c2c1 [Example 15-2, N-[2-(1,1-Dioxido-2,3-dihydro-1,4-benzothiazepin-4(5H)-yl)-6-methylquinolin-4-yl]benzene-1,4-diamine] | 7.99 µM |
| Cc1ccc2nc(N3CCS(=O)(=O)c4ccccc4C3)nc(NCC(C)(C)N)c2c1 [Example 60, N^˜1^˜-[2-(1,1-Dioxido-2,3-dihydro-1,4-benzothiazepin-4(5H)-yl)-6-methylquinazolin-4-yl]-2-methylpropane-1,2-diamine] | 0.018 µM |
| Cc1ccc2nc(N3CCS(=O)(=O)c4ccccc4C3)cc(N3C(=O)NCC34COC4)c2c1 [Example 86, 5-[2-(1,1-Dioxido-2,3-dihydro-1,4-benzothiazepin-4(5H)-yl)-6-methylquinolin-4-yl]-2-oxa-5,7-diazaspiro[3.4]octan-6-one] | 2.22 µM |
| Cc1ccc2nc(N3CCS(=O)(=O)c4ccc(N5CCN(C(C)C)CC5)cc4C3)cc(NCC3(N)COC3)c2c1 [Example 33-2, N-[(3-Aminooxetan-3-yl)methyl]-2-{1,1-dioxido-7-[4-(propan-2-yl)piperazin-1-yl]-2,3-dihydro-1,4-benzothiazepin-4(5H)-yl}-6-methylquinolin-4-amine] | 0.627 µM |
| Cc1ccc2nc(N3CCS(=O)(=O)c4ccccc4C3)cc(NCC3(N)CCOC3)c2c1 (stereo not shown) [Example 2-1, N-[(3-Aminotetrahydrofuran-3-yl)methyl]-2-(1,1-dioxido-2,3-dihydro-1,4-benzothiazepin-4(5H)-yl)-6-methylquinolin-4-amine] | 0.024 µM |
| COCCOc1ccc2nc(N3CCS(=O)(=O)c4ccccc4C3)cc(NCCCN)c2c1 [Example 30-2, N-[2-(1,1-Dioxido-2,3-dihydro-1,4-benzothiazepin-4(5H)-yl)-6-(2-methoxyethoxy)quinolin-4-yl]propane-1,3-diamine] | 0.218 µM |
| NC1(CNc2nc(N3CCS(=O)(=O)c4ccccc4C3)nc3ccccc23)COC1 [Example 57-3, N-[(3-Aminooxetan-3-yl)methyl]-2-(1,1-dioxido-2,3-dihydro-1,4-benzothiazepin-4(5H)-yl)quinazolin-4-amine] | 0.023 µM |
| Cc1ccc2nc(N3CCS(=O)(=O)c4ccccc4C3)cc(N3C[C@@H]4[C@@H](N)[C@@H]4C3)c2c1 [Example 19-2, (1R,5S,6S)-3-[2-(1,1-Dioxido-2,3-dihydro-1,4-benzothiazepin-4(5H)-yl)-6-methylquinolin-4-yl]-3-azabicyclo[3.1.0]hexan-6-amine] | 0.011 µM |
| NC1(CNc2cc(N3CCS(=O)(=O)c4ccc(F)cc4C3)nc3ccc(Cl)cc23)COC1 [Example 3-3, N-[(3-Aminooxetan-3-yl)methyl]-6-chloro-2-(7-fluoro-1,1-dioxido-2,3-dihydro-1,4-benzothiazepin-4(5H)-yl)quinolin-4-amine] | 3.55 µM |
| NCCCNc1cc(N2CCS(=O)(=O)c3ccccc3C2)nc2ccc(C(N)=O)cc12 [Example 81, 4-[(3-Aminopropyl)amino]-2-(1,1-dioxido-2,3-dihydro-1,4-benzothiazepin-4(5H)-yl)quinoline-6-carboxamide] | 0.353 µM |

Now from value to molecule:

| EC50 | Compound |
| --- | --- |
| 3.04 µM | CCc1ccc2nc(N3CCS(=O)(=O)c4ccccc4C3)cc(CCC(=O)O)c2c1 [Example 95, 3-[2-(1,1-Dioxido-2,3-dihydro-1,4-benzothiazepin-4(5H)-yl)-6-ethylquinolin-4-yl]propanoic acid] |
| 0.876 µM | CC(C)(N)CNc1cc(N2CCS(=O)(=O)c3ccccc3C2)nc2ccc(Cl)cc12 [Example 3-26, N^˜1^˜-[6-Chloro-2-(1,1-dioxido-2,3-dihydro-1,4-benzothiazepin-4(5H)-yl)quinolin-4-yl]-2-methylpropane-1,2-diamine] |
| 0.081 µM | Cc1ccc2nc(N3CCC(F)(F)c4ccccc4C3)cc(NCC(C)N)c2c1 (stereo not shown) [Example 110-8, N^˜1^˜-[2-(5,5-Difluoro-1,3,4,5-tetrahydro-2H-2-benzazepin-2-yl)-6-methylquinolin-4-yl]propane-1,2-diamine] |
| 0.063 µM | Cc1ccc2nc(N3CCCc4ccccc4C3)cc(NCCN)c2c1 [Example 118-3, N-[6-Methyl-2-(1,3,4,5-tetrahydro-2H-2-benzazepin-2-yl)quinolin-4-yl]ethane-1,2 diamine] |
| 6.98 µM | Cc1ccc2nc(N3CCS(=O)(=O)c4ccccc4C3)cc(N3CC(N)CC3=O)c2c1 (stereo not shown) [Example 73, 4-Amino-1-[2-(1,1-dioxido-2,3-dihydro-1,4-benzothiazepin-4(5H)-yl)-6-methylquinolin-4-yl]pyrrolidin-2-one] |
| 0.002 µM | Cc1ccc2nc(N3CC[S+]([O-])c4ccccc4C3)nc(NCCCN)c2c1 (stereo not shown) [Example 56-6, N-[6-Methyl-2-(1-oxido-2,3-dihydro-1,4-benzothiazepin-4(5H)-yl)quinazolin-4-yl]propane-1,3-diamine] |
| 0.0007 µM | Cc1ccc2nc(N3CC[S+]([O-])c4ccccc4C3)cc(NCC3(CN)COC3)c2c1 (stereo not shown) [Example 18-8, N-{[3-(Aminomethyl)oxetan-3-yl]methyl}-6-methyl-2-(1-oxido-2,3-dihydro-1,4-benzothiazepin-4(5H)-yl)quinolin-4-amine] |
| 0.022 µM | Cc1ccc2nc(N3CCS(=O)(=O)c4cc(Cl)ccc4C3)cc(NCC3(N)COC3)c2c1 [Example 1-6, N-[(3-Aminooxetan-3-yl)methyl]-2-(8-chloro-1,1-dioxido-2,3-dihydro-1,4-benzothiazepin-4(5H)-yl)-6-methylquinolin-4-amine] |
| 0.024 µM | Cc1ccc2nc(N3CCS(=O)(=O)c4ccccc4C3)cc(N[C@H]3CC[C@@H](N)CC3)c2c1 [Example 3-18, cis-N-[2-(1,1-Dioxido-2,3-dihydro-1,4-benzothiazepin-4(5H)-yl)-6-methylquinolin-4-yl]-cyclohexane-1,4-diamine] |
| 0.161 µM | CNCCNc1cc(N2CCC(F)(F)c3ccccc3C2)nc2ccc(C)cc12 [Example 110-3, N-[2-(5,5-Difluoro-1,3,4,5-tetrahydro-2H-2-benzazepin-2-yl)-6-methylquinolin-4-yl]-N′-methylethane-1,2-diamine] |
| 5.05 µM | Cc1ccc2nc(N3CCS(=O)(=O)c4ccccc4C3)cc(N3C[C@H](O)C(C)(C)C3)c2c1 [Example 3-17, (R)-1-[2-(1,1-Dioxido-2,3-dihydro-1,4-benzothiazepin-4(5H)-yl)-6-methylquinolin-4-yl]-4,4-dimethyl-pyrrolidin-3-ol] |
| 0.31 µM | COc1ccc2c(c1)CN(c1cc(N)c3cc(C)ccc3n1)CCS2(=O)=O [Example 20-2, 2-(7-Methoxy-1,1-dioxido-2,3-dihydro-1,4-benzothiazepin-4(5H)-yl)-6-methylquinolin-4-amine] |
| 0.003 µM | Cc1ccc2nc(N3CC[S+]([O-])c4ccccc4C3)cc(N[C@@H]3CNC[C@H]3F)c2c1 (relative stereo) [Example 28-5, N-[trans-4-Fluoropyrrolidin-3-yl]-6-methyl-2-(1-oxido-2,3-dihydro-1,4-benzothiazepin-4(5H)-yl)quinolin-4-amine] |
